Assay results: patent publication EP4640238A1, “THERAPEUTIC AGENT FOR PULMONARY DISEASE, HEPATIC DISEASE OR RENAL DISEASE, WHICH CONTAINS PGAM-CHK1 BINDING INHIBITOR” (Kyoto University, priority 2022, dated 2024)

Legend:
aged mice [1] = experiment: Effect on the kidneys of aged mice (HE staining, hyalinization, marker expression); format: in vivo, C57BL/6J; details: 20-month-old aged mice, once a week for 3 months, versus Vehicle
Experimental: (§1) Nutlin 3b was administered to C57BL/6J, 20-month-old aged mice once a week for 3 months. After 3 months, the mice were sacrificed, and HE staining and mRNA expression analysis of the renal tissue were performed. As a comparison subject, the renal tissue of young mice (C57BL/6J, 10-week old) and aged mice with no administration of nutlin 3b (Vehicle) were used.
Also, the increase in senescence markers and SASP markers induced in aged renal tissue was suppressed by nutlin 3b administration (Fig. 20-3).

[2] = test system: FoxM1 and its downstream target genes (Plk1, Ccnb2, Aspm, and Cep55); experiment: Expression of FoxM1 and its downstream target genes in lung tissue of BLM pulmonary fibrosis model mice (real-time PCR); format: in vivo, ICR mice; details: lung tissue 21 days after 2.5 mg/kg bleomycin; 20 mg/kg intraperitoneally 4 times a week for 2 weeks; versus solvent
Experimental: The influence of the nutlin 3b administration to FoxM1 target factors in bleomycin-induced pulmonary fibrosis was examined. Specifically, 2.5 mg/kg of bleomycin was intratracheally administered to 10- to 12-week old ICR mice. Starting 8 days after bleomycin administration, 20 mg/kg of nutlin 3b or the solvent alone was intraperitoneally administered 4 times a week for 2 weeks. 21 days after bleomycin administration, mice in the nutlin 3b administration group and the solvent administration group were sacrificed to sample their lung tissue. In the test, 3 mice in the nutlin 3b non-administration group (solvent only) and 3 mice in the nutlin 3b administration group were used. The collected lung tissue was immersed in a sufficient amount of RNAlater and stored at 4°C overnight. The next day, the lung tissue was removed from the RNAlater, and the total RNA was collected using TRIzole. Then, mRNA was reverse-transcribed using a ReverTra Ace qPCR RT kit to prepare cDNA. Real-time PCR was performed on the prepared cDNA using primers specific to FoxM1 and its downstream target genes (Plk1, Ccnb2, Aspm, and Cep55).

aged mice [3] = experiment: Effect on the lungs of aged mice (HE staining and p21 antibody staining); format: in vivo, C57BL/6J; details: 20-month-old aged mice, once a week for 3 months; versus Vehicle
Experimental: as §1, with “lung” for “renal”

[4] = test system: fibrosis-related genes (Col1a2, Col5a2, Fibronectin, and Toropelastin); experiment: Expression of fibrosis-related mRNA in lung tissue of BLM pulmonary fibrosis model mice (real-time PCR); format: in vivo, ICR mice; details: lung tissue 21 days after 2.5 mg/kg bleomycin; 14, 20, and 24 mg/kg intraperitoneally 4 times a week for 2 weeks; versus solvent
Experimental: 2.5 mg/kg of bleomycin was intratracheally administered to 10- to 12-week old ICR mice. Starting 8 days after bleomycin administration, 14, 20, and 24 mg/kg of nutlin 3b or the solvent alone were intraperitoneally administered 4 times a week for 2 weeks. 21 days after bleomycin administration, mice in the nutlin 3b administration group or solvent administration group were sacrificed to sample their lung tissue. In the test, 3 mice in the nutlin 3b non-administration group (solvent only) and 3 mice in the nutlin 3b administration group were used. The same applies to the following tests. The collected lung tissue was immersed in a sufficient amount of RNAlater and stored at 4°C overnight. The next day, the lung tissue was removed from the RNAlater, and the total RNA was collected using TRIzole. Then, mRNA was reverse-transcribed using a ReverTra Ace qPCR RT kit to prepare cDNA. Real-time PCR was performed on the prepared cDNA using primers specific to fibrosis-related genes (Col1a2, Col5a2, Fibronectin, and Toropelastin).

[5] = test system: BLM pulmonary fibrosis model mice; experiment: Survival rate in BLM pulmonary fibrosis model mice; format: in vivo, C57BL6 mice; details: 2.5 mg/kg bleomycin intratracheally; 20 mg/kg nutlin 3b intraperitoneally 4 times a week for 2 weeks from day 8; deaths within 21 days; versus solvent only
Experimental: 2.5 mg/kg of bleomycin was intratracheally administered to 10- to 12-week old C57BL6 mice. Starting 8 days after bleomycin administration, 20 mg/kg of nutlin 3b or the solvent alone was intraperitoneally administered 4 times a week for 2 weeks. The mice were checked for survival every day, and the number of mice that died within 21 days after bleomycin administration was counted. In this test, 6 mice in the nutlin 3b non-administration group (solvent only) and 7 mice in the nutlin 3b administration group were used. […] In the figure, 3B indicates nutlin 3b. The same applies to the following figures.

[6] = test system: BLM pulmonary fibrosis model mice; experiment: Pathological comparison: Masson's trichrome staining of lung tissue, quantification of fibrosis regions; format: in vivo, ICR mice; details: blue area quantified, 14, 20, and 24 mg/kg intraperitoneally 4 times a week for 2 weeks, day 21 after bleomycin
Experimental: 2.5 mg/kg of bleomycin was intratracheally administered to 10- to 12-week old ICR mice. Starting 8 days after bleomycin administration, 14, 20, and 24 mg/kg of nutlin 3b or the solvent alone were intraperitoneally administered 4 times a week for 2 weeks. 21 days after bleomycin administration, mice in the nutlin 3b administration group or solvent administration group were sacrificed to sample their lung tissue. The lung tissue was fixed by treatment with 4% paraformaldehyde for 48 hours. The fixed lung tissue was embedded in paraffin, and then sliced into 5 µm thin slices, and set on microscope slides. Masson's trichrome staining was performed on the thin slices of the lung tissue to evaluate fibrosis. Specifically, in Masson's trichrome staining, nuclei are stained black-brown with iron hematoxylin staining, cytoplasm is stained red with […], and collagen fibers are stained blue with aniline blue. Accordingly, to evaluate fibrosis, the stained image was separated into the three primary colors using ImageJ (image analysis software), and the area which stained blue was quantified as the fibrosis regions. The obtained signals of each group were expressed as relative values to the control group (PBS + PEG). The results of Masson's trichrome staining are shown in Fig. 17-1, and the quantification results of the fibrosis regions are shown in Fig. 17-2.

PGAM-Chk1 binding = PGAM-Chk1 binding inhibition HTP screening using a Cell-base NanoBiT system (primary screening); format: cell-based
Text: Examples of a preferred method for measuring the binding level between PGAM and Chk1 include, in addition to the above, a method that uses PGAM and Chk1 labeled with tags that can bind to each other, and specific examples thereof include the following method that uses a Nanobit system. In Nanobit, a large subunit and a small subunit of a photoprotein prepared based on a luciferase are attached as tags to PGAM and Chk1, respectively. These tags have structures that can bind to each other. […] By measuring the intensity of the luminescence signal at this time, the binding level can be measured with high sensitivity and high quantitativity.
PGAM-Chk1 binding inhibition HTP (high-throughput) screening using a Cell-base NanoBiT system was carried out. Specifically, the screening was carried out by the following method. In NanoBiT, a large subunit and a small subunit of a photoprotein prepared based on a luciferase are attached as tags to PGAM and Chk1, respectively. These tags have structures that can bind to each other. […] By measuring the intensity of the luminescence signal at this time, the binding level can be measured with high sensitivity and high quantitativity. […] Therefore, a substance that inhibits the binding of PGAM and Chk1 was searched from the drug library, with the decrease in the luminescence signal as an indicator. […]

COc1ccc(C2=N[C@H](c3ccc(Cl)cc3)[C@H](c3ccc(Cl)cc3)N2C(=O)N2CCNC(=O)C2)c(OC(C)C)c1 [nutlin 3b, Nutlin-3b]
increase in senescence markers and SASP markers induced in aged renal tissue (aged mice [1]): suppressed | glomerular hyalinization (four-level score) (aged mice [1]; HE staining of renal tissue): significant improvement in hyalinization | interstitial hyalinization positive rate (aged mice [1]; HE staining of renal tissue): significant improvement in hyalinization | expression of FoxM1 target genes [2]: suppression of the expression of FoxM1 target genes was observed | p21-positive cells in aged lung tissue (aged mice [3]): significantly suppressed | expression of the fibrosis-related genes [4]: decreased | survival rate [5]: improved the survival rate | fibrosis areas induced by bleomycin in the lungs [6]: smaller than those of the control group

nutlin
luminescence signal (binding level between PGAM and Chk1) (PGAM-Chk1 binding): luminescence signal decreases
